Test results from publication PMC9602571, “Discovery of a Dual SENP1 and SENP2 Inhibitor” (International Journal of Molecular Sciences, 2022).
pIC50: −log10 of the molar value. Where two headings read alike, the source gives them in different places.

Legend:
SENP1 = molecular target: T1, SENP1 (Homo sapiens, UniProt Q9P0U3); assay: Fluorogenic SENP1 assay, SUMO1-AMC substrate; assay type: biochemical; conditions: for LE (ligand efficiency): calculated: 1.4(-logIC50)/N; for reduced inhibition by a factor: compared to hit compound 11
T1 construct: Human recombinant, His6-SENP1 Catalytic Domain; His6 (N); purchased Boston Biochem (Bio-Techne AG) E-700
T1 sequence (Q9P0U3 450-613 limits assumed): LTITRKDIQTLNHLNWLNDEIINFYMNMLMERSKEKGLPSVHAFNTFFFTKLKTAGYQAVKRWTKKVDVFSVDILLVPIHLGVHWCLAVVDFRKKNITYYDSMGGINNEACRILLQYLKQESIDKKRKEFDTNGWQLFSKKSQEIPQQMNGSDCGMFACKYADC
Protocol: Human recombinant, His6-SENP1 Catalytic Domain (Boston Biochem Cat# E-700, Bio-Techne AG, Zug, Switzerland) was prepared in reaction buffer (50 mM HEPES, 150 mM NaCl, 0.5 mM EDTA, 1 mM DTT, pH 7.5, 0.01% CHAPS). To this solution, a 20 mM or 50 mM inhibitor stock solution in DMSO was added and the mixture was incubated for 15 min at ambient temperature. […] The slope was calculated using Excel and the curve fits were performed using GraphPad Prism7 with a four-parameter least-squares fit. The final reaction conditions contained 0.02 nM SENP1 and 300 nM SUMO1/2 or 3-AMC).

[1] = screening library samples, SUMO1-AMC, read-out: IC50 SENP1 of hit molecules
[2] = SUMO1-AMC 300 nM, 0.02 nM SENP1, interval in parentheses, read-out: IC50 SENP1

SMILES	pIC50 (SENP1; [2])	LE (ligand efficiency) (SENP1)	melting point	further results
Cc1c(C(=O)N2CCC(C)CC2)nnn1-c1cccc2c1CCN(Cc1ccccc1)C2 [Compound 12]	–	–	–	pIC50 (SENP1; [1]): 4.57
CC1CCn2cc(C(=O)NC3CCn4cc(-c5ccc(F)cc5F)nc4C3)nc2C1 (stereo not drawn) [Compound 13]	–	–	–	pIC50 (SENP1; [1]): 4.55
O=C1Nc2ccccc2NC12CCCC2 [Compound 15, 3′,4′-Dihydro-1′H-spiro[cyclopentane-1,2′-quinoxalin]-3′-one]	3.94	0.37	174 °C	–
CC1(C)Nc2ccccc2NC1=O [Compound 16, 3,3-Dimethyl-1,2,3,4-tetrahydroquinoxalin-2-one]	< 3.30	–	178 °C	inhibition at 500 µM (SENP1): ~50%
CC1(C)C(=O)Nc2ccccc2N1C(=O)Cn1nnc(-c2ccccc2)n1 [Compound 23, 3,3-Dimethyl-4-[2-(5-phenyl-2H-1,2,3,4-tetrazol-2-yl)acetyl]-1,2,3,4-tetrahydroquinoxalin-2-one]	4.91	–	252 °C (dec.)	reduced inhibition by a factor (SENP1): 1.5
O=C1CN(C(=O)Cn2nnc(-c3ccccc3)n2)c2ccccc2N1 [Compound 24, 4-[2-(5-Phenyl-2H-1,2,3,4-tetrazol-2-yl)acetyl]-1,2,3,4-tetrahydroquinoxalin-2-one]	4.11	–	231 °C (dec.)	reduced inhibition by a factor (SENP1): 10
O=C1CNc2ccccc2N1 [Compound 25, 1,2,3,4-tetrahydroquinoxalin-2-one]	< 3.30	–	–	–
O=C1Nc2ccccc2OC12CCCC2 [Compound 26, 3,4-Dihydrospiro [1,4-benzoxazine-2,1′-cyclopentan]-3-one]	4.11	0.38	157 to 162 °C	–
O=C1Nc2ccccc2NC12CCCCC2 [Compound 27, 3′,4′-Dihydro-1′H-spiro[cyclohexane-1,2′-quinoxalin]-3′-one]	3.58	0.31	230 to 234 °C (dec.)	–
O=C1Nc2ccccc2NC12CCCCCCC2 [Compound 28, 3′,4′-Dihydro-1′H-spiro[cyclooctane-1,2′-quinoxalin]-3′-one]	4.29	0.33	–	–
O=C1Nc2ccccc2NC12CCC2 [Compound 29, 3′,4’-Dihydro-1′H-spiro[cyclobutane-1,2′-quinoxalin]-3′-one]	4.18	0.42	–	–
O=C1Nc2ccccc2NC12COC2 [Compound 30, 3′,4′-Dihydro-1′H-spiro[oxetane-3,2′-quinoxalin]-3′-one]	4.09	0.41	165 to 170 °C (dec.)	–
O=C1Nc2ccccc2NC12CCOCC2 [Compound 31, 3′,4′-Dihydro-1′H-spiro[oxane-4,2′-quinoxalin]-3′-one]	3.63	0.32	211 to 226 °C (dec.)	–
O=C1NC2(CCCC2)Nc2ccccc21 [Compound 32, 3′,4′-Dihydro-1′H-spiro[cyclopentane-1,2′-quinazolin]-4′-one]	–	–	233 to 238 °C (dec.)	–
c1ccc2c(c1)NCC1(CCCC1)N2 [Compound 33, 3′,4′-Dihydro-1′H-spiro[cyclopentane-1,2′-quinoxaline]]	< 3.30	–	80 to 82 °C	–
O=C1Nc2ncccc2NC12CCCC2 [Compound 34, 3′,4′-Dihydro-1′H-spiro[cyclopentane-1,2′-pyrido [2,3-b]pyrazin]-3′-one]	< 3.30	–	–	SENP1 activity in words (SENP1; up to 500 µM): complete loss of activity
O=C1Nc2cscc2NC12CCCC2 [Compound 35, 3′,4′-Dihydro-1′H-spiro[cyclopentane-1,2′-thieno [3,4-b]pyrazin]-3′-one]	4.43	0.44	126 to 130 °C (dec.)	–

SMILES	pIC50 (SENP1; [2])	LE (ligand efficiency) (SENP1)	melting point	further results
O=C1Nc2cscc2NC12CCCCC2 [Compound 36, 3′,4′-Dihydro-1′H-spiro[cyclohexane-1,2′-thieno [3,4-b]pyrazin]-3′-one]	4.21	0.39	–	–
COc1cccc2c1NC(=O)C1(CCCC1)N2 [Compound 37, 5′-Methoxy-3′,4′-dihydro-1′H-spiro[cyclopentane-1,2′-quinoxalin]-3′-one]	3.96	0.34	176 to 180 °C	–
COC(=O)c1cccc2c1NC(=O)C1(CCCC1)N2 [Compound 38, Methyl 3′-oxo-3′,4′-dihydro-1′H-spiro[cyclopentane-1,2′-quinoxaline]-5′-carboxylate]	4.21	0.33	147 to 149 °C	–
COc1ccc2c(c1)NC1(CCCC1)C(=O)N2 [Compound 39, 7′-Methoxy-3′,4′-dihydro-1′H-spiro[cyclopentane-1,2′-quinoxalin]-3′-one]	3.70	0.32	224 to 227 °C (dec.)	–
COC(=O)c1ccc2c(c1)NC(=O)C1(CCCC1)N2 [Compound 40, Methyl 3′-oxo-3′,4′-dihydro-1′H-spiro[cyclopentane-1,2′-quinoxaline]-6′-carboxylate]	3.69	0.28	246 to 250 °C (dec.)	–
O=C1Nc2cc([N+](=O)[O-])ccc2NC12CCCC2 [Compound 41, 6′-Nitro-3′,4′-dihydro-1′H-spiro[cyclopentane-1,2′-quinoxalin]-3′-one]	4.17	0.34	275 to 278 °C	–
O=C(Cn1cc(-c2ccccc2)nn1)N1c2ccccc2NC(=O)C12CCCC2 [Compound 44, 1′-[2-(4-Phenyl-1H-1,2,3-triazol-1-yl)acetyl]-3′,4′-dihydro-1′H-spiro[cyclopentane-1,2′-quinoxalin]-3′-one]	4.64	–	256 °C (dec.)	–
O=C(Cn1cc(C2CCCCC2)nn1)N1c2ccccc2NC(=O)C12CCCC2 [Compound 45, 1′-[2-(4-Cyclohexyl-1H-1,2,3-triazol-1-yl)acetyl]-3′,4′-dihydro-1′H-spiro[cyclopentane-1,2′-quinoxalin]-3′-one]	4.72	–	205 °C (dec.)	–
O=C(Cn1cc(C2CC2)nn1)N1c2ccccc2NC(=O)C12CCCC2 [Compound 51, 1′-[2-(4-Cyclopropyl-1H-1,2,3-triazol-1-yl)acetyl]-3′,4′-dihydro-1′H-spiro[cyclopentane-1,2′-quinoxalin]-3′-one]	< 3.70	–	–	–
COCCc1cn(CC(=O)N2c3ccccc3NC(=O)C23CCCC3)nn1 [Compound 53, 1′-{2-[4-(2-Methoxyethyl)-1H-1,2,3-triazol-1-yl]acetyl}-3′,4′-dihydro-1′H-spiro[cyclopentane-1,2′-quinoxalin]-3′-one]	< 4.00	–	–	–
O=C(CN1CCN(c2ccccc2)CC1)N1c2ccccc2NC(=O)C12CCCC2 [Compound S1]	3.82	–	–	–
CC1(C)C(=O)Nc2ccccc2N1C(=O)CN1CCN(c2ccccc2)CC1 [Compound S2]	4.00	–	–	–
CC1(C)C(=O)Nc2ccccc2N1C(=O)COc1ccccc1 [Compound S3]	< 3.70	–	–	–
CC1(C)C(=O)Nc2ccccc2N1C(=O)CN1CCc2ccccc21 [Compound S4]	3.82	–	–	–
CN(CC(=O)N1c2ccccc2NC(=O)C1(C)C)Cc1ccccc1 [Compound S5]	< 3.70	–	–	–
CN(CC(=O)N1c2ccccc2NC(=O)C1(C)C)c1ccccc1 [Compound S6]	< 3.70	–	–	–
COc1ccc(N(C)CC(=O)N2c3ccccc3NC(=O)C2(C)C)cc1 [Compound S7]	< 3.70	–	–	–
